# Target: USP7 (Homo sapiens (Human), UniProt Q93009)
# Assay: USP7 fluorescence polarisation (FP) biochemical assay, ubiquitin-Lys-TAMRA substrate
# Settings: Table 4, biochemical assay; average of at least duplicate experiments; read-out: USP7 IC50
# Procedure, shortened: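 Full-length His6-USP7 (2.5 nM) incubated ± inhibitor (8-point dilutions, 200 to 0.1 μM before addition) in 50 mM HEPES pH 7.2, 150 mM NaCl, 0.5 mM EDTA, 5 mM DTT, 0.05% BSA, 0.05% CHAPS. Ubiquitin-Lys-TAMRA cleavage followed by FP (ex 530/em 575 nm) every 15 min for 1.5 h; normalised to no-compound control.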
# Chain of USP7 (Q93009 whole entry): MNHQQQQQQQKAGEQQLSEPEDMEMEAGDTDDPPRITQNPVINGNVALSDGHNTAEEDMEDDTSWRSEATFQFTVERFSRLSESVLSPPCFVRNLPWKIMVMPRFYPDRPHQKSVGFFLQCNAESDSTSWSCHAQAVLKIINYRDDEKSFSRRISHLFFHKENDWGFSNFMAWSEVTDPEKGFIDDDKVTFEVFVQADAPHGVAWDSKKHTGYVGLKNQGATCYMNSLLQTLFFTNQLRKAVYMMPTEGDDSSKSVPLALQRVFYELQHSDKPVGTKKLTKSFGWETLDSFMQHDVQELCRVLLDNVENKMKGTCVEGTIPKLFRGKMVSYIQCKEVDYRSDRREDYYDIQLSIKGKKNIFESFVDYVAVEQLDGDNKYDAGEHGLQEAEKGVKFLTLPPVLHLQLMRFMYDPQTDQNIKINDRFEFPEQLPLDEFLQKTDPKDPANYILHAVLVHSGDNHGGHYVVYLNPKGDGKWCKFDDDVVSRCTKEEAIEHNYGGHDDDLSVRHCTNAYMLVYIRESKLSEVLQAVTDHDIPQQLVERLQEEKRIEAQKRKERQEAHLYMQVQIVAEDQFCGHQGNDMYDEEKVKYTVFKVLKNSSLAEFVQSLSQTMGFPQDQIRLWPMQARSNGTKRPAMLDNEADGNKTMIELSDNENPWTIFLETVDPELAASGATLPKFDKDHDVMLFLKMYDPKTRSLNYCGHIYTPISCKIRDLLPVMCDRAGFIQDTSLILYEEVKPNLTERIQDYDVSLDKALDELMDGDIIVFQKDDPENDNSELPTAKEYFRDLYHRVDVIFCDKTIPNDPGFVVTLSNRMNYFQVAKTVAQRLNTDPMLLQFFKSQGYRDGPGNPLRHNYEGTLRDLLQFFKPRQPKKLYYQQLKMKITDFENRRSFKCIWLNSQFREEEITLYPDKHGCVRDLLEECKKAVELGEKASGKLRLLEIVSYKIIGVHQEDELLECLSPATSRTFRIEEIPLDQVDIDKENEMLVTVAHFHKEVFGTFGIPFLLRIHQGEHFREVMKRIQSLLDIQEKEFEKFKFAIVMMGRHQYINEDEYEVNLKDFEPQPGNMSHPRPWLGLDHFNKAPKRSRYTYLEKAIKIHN
row,IC50,SMILES
1,1 to 200 µM,"Cc1nc2c(=O)n(CC3(O)CCN(C(=O)CC(C4CC4)C4CC4)CC3)cnc2n1-c1ccccc1 [Example 190, 1-((1-(3,3-Dicyclopropylpropanoyl)-4-hydroxypiperidin-4-yl)methyl)-8-methyl-9-phenyl-1H-purin-6(9H)-one]"
2,1 to 200 µM,"Cn1nc2c(=O)n(CC3(O)CCN(C(=O)C4(C)CC4)CC3)cnc2c1-c1ccccc1 [Example 191, 6-((4-Hydroxy-1-(1-methylcyclopropanecarbonyl)piperidin-4-yl)methyl)-2-methyl-3-phenyl-2H-pyrazolo[4,3-d]pyrimidin-7(6H)-one]"
3,1 to 200 µM,"Cn1nc2c(=O)n(CC3(O)CCN(C(=O)c4cnco4)CC3)cnc2c1-c1ccccc1 [Example 192, 6-((4-Hydroxy-1-(oxazole-5-carbonyl)piperidin-4-yl)methyl)-2-methyl-3-phenyl-2H-pyrazolo[4,3-d]pyrimidin-7(6H)-one]"
4,0.25 to 0.999 µM,"Cn1nc2c(=O)n(CC3(O)CCN(C(=O)CC(C4CC4)C4CC4)CC3)cnc2c1-c1ccccc1 [Example 193, 6-((1-(3,3-Dicyclopropylpropanoyl)-4-hydroxypiperidin-4-yl)methyl)-2-methyl-3-phenyl-2H-pyrazolo[4,3-d]pyrimidin-7(6H)-one]"
5,< 0.25 µM,"CCOC(=O)NCc1ccc(-c2c3ncn(CC4(O)CCN(C(=O)C[C@@H](C)c5ccccc5)CC4)c(=O)c3nn2C)cc1 [Example 194, (R)-Ethyl 4-(6-((4-hydroxy-1-(3-phenylbutanoyl)piperidin-4-yl)methyl)-2-methyl-7-oxo-6,7-dihydro-2H-pyrazolo[4,3-d]pyrimidin-3-yl)benzylcarbamate]"
6,1 to 200 µM,"Cc1nc2c(=O)n(CC3(O)CCN(C(=O)c4cnc(C5CC5)o4)CC3)cnc2n1-c1ccccc1 [Example 195, 1-((1-(2-Cyclopropyloxazole-5-carbonyl)-4-hydroxypiperidin-4-yl)methyl)-8-methyl-9-phenyl-1H-purin-6(9H)-one]"
7,1 to 200 µM,"Cn1nc2c(=O)n(CC3(O)CCN(C(=O)c4cnc(C5CC5)o4)CC3)cnc2c1-c1ccccc1 [Example 196, 6-((1-(2-Cyclopropyloxazole-5-carbonyl)-4-hydroxypiperidin-4-yl)methyl)-2-methyl-3-phenyl-2H-pyrazolo[4,3-d]pyrimidin-7(6H)-one]"
8,1 to 200 µM,"CC1(C(=O)N2CCC(O)(Cn3cnc4c(nnn4-c4ccccc4)c3=O)CC2)CC1 [Example 197, 6-((4-Hydroxy-1-(1-methylcyclopropanecarbonyl)piperidin-4-yl)methyl)-3-phenyl-3H-[1,2,3]triazolo[4,5-d]pyrimidin-7(6H)-one]"
9,1 to 200 µM,"O=C(c1cnc(C2CC2)o1)N1CCC(O)(Cn2cnc3c(nnn3-c3ccccc3)c2=O)CC1 [Example 198, 6-((1-(2-Cyclopropyloxazole-5-carbonyl)-4-hydroxypiperidin-4-yl)methyl)-3-phenyl-3H-[1,2,3]triazolo[4,5-d]pyrimidin-7(6H)-one]"
10,1 to 200 µM,"CC1(C(=O)N2CCC(O)(Cn3cnc4[nH]c(Cl)cc4c3=O)CC2)CC1 [Example 199, 6-Chloro-3-((4-hydroxy-1-(1-methylcyclopropanecarbonyl)piperidin-4-yl)methyl)-3H-pyrrolo[2,3d]pyrimidin-4(7H)-one]"
11,< 0.25 µM,"CC1(C(=O)N2CCC(O)(Cn3cnc4c(cc(Cl)n4-c4csc(CO)c4)c3=O)CC2)CC1 [Example 201, 6-Chloro-3-((4-hydroxy-1-(1-methylcyclopropanecarbonyl)piperidin-4-yl)methyl)-7-(5-(hydroxymethyl)thiophen-3-yl)-3H-pyrrolo[2,3-d]pyrimidin-4(7H)-one]"
12,< 0.25 µM,"CC1(C(=O)N2CCC(O)(Cn3cnc4c(cc(Cl)n4-c4ccc(F)cc4)c3=O)CC2)CC1 [Example 204, 6-Chloro-7-(4-fluorophenyl)-3-((4-hydroxy-1-(1-methylcyclopropanecarbonyl)piperidin-4-yl)methyl)-3H-pyrrolo[2,3-d]pyrimidin-4(7H)-one]"
13,< 0.25 µM,"O=C(c1cnc(C2CC2)o1)N1CCC(O)(Cn2cnc3c(cc(Cl)n3-c3ccc(F)cc3)c2=O)CC1 [Example 205, 6-Chloro-3-((1-(2-cyclopropyloxazole-5-carbonyl)-4-hydroxypiperidin-4-yl)methyl)-7-(4-fluorophenyl)-3H-pyrrolo[2,3-d]pyrimidin-4(7H)-one]"
14,< 0.25 µM,"COc1cc(-n2c(Cl)cc3c(=O)n(CC4(O)CCN(C(=O)c5cnc(C6CC6)o5)CC4)cnc32)ccc1F [Example 206, 6-Chloro-3-((1-(2-cyclopropyloxazole-5-carbonyl)-4-hydroxypiperidin-4-yl)methyl)-7-(4-fluoro-3-methoxyphenyl)-3H-pyrrolo[2,3-d]pyrimidin-4(7H)-one]"
15,0.25 to 0.999 µM,"COc1cc(-n2c(Cl)cc3c(=O)n(CC4(O)CCN(C(=O)C5(C)CC5)CC4)cnc32)ccc1F [Example 207, 6-Chloro-7-(4-fluoro-3-methoxyphenyl)-3-((4-hydroxy-1-(1-methylcyclopropanecarbonyl)piperidin-4-yl)methyl)-3H-pyrrolo[2,3-d]pyrimidin-4(7H)-one]"
16,0.25 to 0.999 µM,"Cn1nccc1-c1cccc(-n2c(Cl)cc3c(=O)n(CC4(O)CCN(C(=O)C5(C)CC5)CC4)cnc32)c1 [Example 208, 6-Chloro-3-((4-hydroxy-1-(1-methylcyclopropanecarbonyl)piperidin-4-yl)methyl)-7-(3-(1-methyl-1H-pyrazol-5-yl)phenyl)-3H-pyrrolo[2,3-d]pyrimidin-4(7H)-one]"
17,1 to 200 µM,"Cn1c(Cl)cc2c(=O)n(CC3(O)CCN(C(=O)C4(C)CC4)CC3)cnc21 [Example 209, 6-Chloro-3-((4-hydroxy-1-(1-methylcyclopropanecarbonyl)piperidin-4-yl)methyl)-7-methyl-3H-pyrrolo[2,3-d]pyrimidin-4(7H)-one]"
18,0.25 to 0.999 µM,"Cn1nccc1-c1cccc(-n2c(Cl)cc3c(=O)n(CC4(O)CCN(C(=O)c5cnc(C6CC6)o5)CC4)cnc32)c1 [Example 210, 6-Chloro-3-((1-(2-cyclopropyloxazole-5-carbonyl)-4-hydroxypiperidin-4-yl)methyl)-7-(3-(1-methyl-1H-pyrazol-5-yl)phenyl)-3H-pyrrolo[2,3-d]pyrimidin-4(7H)-one]"
19,< 0.25 µM,"Cn1cc(-c2cccc(-n3c(Cl)cc4c(=O)n(CC5(O)CCN(C(=O)c6cnc(C7CC7)o6)CC5)cnc43)c2)cn1 [Example 211, 6-Chloro-3-((1-(2-cyclopropyloxazole-5-carbonyl)-4-hydroxypiperidin-4-yl)methyl)-7-(3-(1-methyl-1H-pyrazol-4-yl)phenyl)-3H-pyrrolo[2,3-d]pyrimidin-4(7H)-one]"
20,< 0.25 µM,"O=C(c1cnc(C2CC2)o1)N1CCC(O)(Cn2cnc3c(cc(Cl)n3-c3cccc(Br)c3)c2=O)CC1 [Example 213, 7-(3-Bromophenyl)-6-chloro-3-((1-(2-cyclopropyloxazole-5-carbonyl)-4-hydroxypiperidin-4-yl)methyl)-3H-pyrrolo[2,3-d]pyrimidin-4(7H)-one]"

# Same assay, conditions: USP7 IC50, Table 4, biochemical assay; average of at least duplicate experiments
row,IC50,SMILES
1,0.25 to 0.999 µM,"Cc1nc2c(=O)n(CC3(O)CCN(C(=O)C[C@H](c4ccccc4)C(F)(F)F)CC3)cnc2n1-c1ccccc1 [Example 189, (R)-1-((4-Hydroxy-1-(4,4,4-trifluoro-3-phenylbutanoyl)piperidin-4-yl)methyl)-8-methyl-9-phenyl-1H-purin-6(9H)-one]"
